Test results as given in patent US20180271891A1, “SELECTIVE TREATMENT OF PRMT5 DEPENDENT CANCER” (THE BROAD INSTITUTE INC., priority 2015, published 2018).

Assays:
PRMT5 = PRMT5 (Homo sapiens, UniProt O14744); details: cited from earlier work
[1] = system: MTAP− and MTAP+ cell lines (isogenic pairs); assay: Cell viability IC50 measurement (Cell Titer-Glo); format: cell-based
Procedure: Applicants tested the ability of these inhibitors to selectively impair viability of parental MTAP− cell lines compared to isogenic lines expressing MTAP, as well as parental MTAP+ cell lines compared to isogenic CRISPR-mediated MTAP knockout lines (FIG. 17).
Cell plating densities were determined by evaluating the number of cells required to achieve 70% confluency after 12 days in culture. Cells were seeded in 100 μL of media in 96-well plates (excluding wells in the first or last row or column) using the following densities in cells per well: LU99 at 360, H647 at 100, SF-172 at 35, SU8686 at 250, MIAPACA2 at 135, H838 at 73, H2126 at 1042, HCC44 at 62, KP2 at 292, H661 at 166, and H2030 at 250. Isogenic cell line pairs were seeded at the same densities for all experiments.
Drug was administered using the HP D300 digital dispenser (Hewlett-Packard). […] Media and drug were changed every 4 days.
Isogenic cell line pairs were plated and cultured in parallel for the same time period. Luminescence was measured according to the manufacturer's instructions using the EnVision Multilabel Reader (Perkin Elmer). Luminescence data from each well was normalized to luminescence from wells containing untreated cells on that same plate. IC50 was calculated by non-linear regression using the ‘log(inhibitor) vs. response (three parameters) analysis in GraphPad Prism 6.

PRMT5, sequence (O14744 whole entry): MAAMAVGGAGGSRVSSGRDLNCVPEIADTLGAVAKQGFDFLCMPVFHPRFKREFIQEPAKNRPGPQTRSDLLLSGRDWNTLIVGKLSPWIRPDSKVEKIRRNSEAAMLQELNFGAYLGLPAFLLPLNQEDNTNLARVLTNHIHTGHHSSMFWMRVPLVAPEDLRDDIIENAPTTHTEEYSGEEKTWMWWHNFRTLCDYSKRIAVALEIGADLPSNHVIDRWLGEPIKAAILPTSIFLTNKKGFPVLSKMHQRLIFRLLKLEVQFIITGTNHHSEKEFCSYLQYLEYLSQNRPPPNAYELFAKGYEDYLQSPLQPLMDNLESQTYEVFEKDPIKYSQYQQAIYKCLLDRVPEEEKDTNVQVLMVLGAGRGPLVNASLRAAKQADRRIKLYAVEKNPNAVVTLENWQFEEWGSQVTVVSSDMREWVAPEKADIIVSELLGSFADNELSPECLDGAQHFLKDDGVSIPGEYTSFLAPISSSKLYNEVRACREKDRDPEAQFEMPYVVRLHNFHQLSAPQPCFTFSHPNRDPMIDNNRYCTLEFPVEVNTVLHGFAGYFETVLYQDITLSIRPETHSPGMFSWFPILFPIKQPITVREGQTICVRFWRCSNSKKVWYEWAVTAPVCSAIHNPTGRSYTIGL
PRMT5, sequence (Q9BQA1 whole entry partner): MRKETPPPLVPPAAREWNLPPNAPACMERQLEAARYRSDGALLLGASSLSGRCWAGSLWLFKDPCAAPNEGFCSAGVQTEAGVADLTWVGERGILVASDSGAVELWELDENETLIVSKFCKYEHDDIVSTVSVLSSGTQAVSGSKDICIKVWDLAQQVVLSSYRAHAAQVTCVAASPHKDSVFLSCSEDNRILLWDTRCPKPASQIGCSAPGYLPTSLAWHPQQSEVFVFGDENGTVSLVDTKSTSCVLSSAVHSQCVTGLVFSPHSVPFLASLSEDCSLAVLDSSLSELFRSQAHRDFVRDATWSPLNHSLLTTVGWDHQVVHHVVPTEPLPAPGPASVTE

O=C(NC[C@H](O)CN1CCc2ccccc2C1)c1cc(NC2COC2)ncn1 [EPZ015666]
mode of inhibition of PRMT5 (PRMT5): peptide-competitive and SAM-cooperative
differential sensitivity between isogenic MTAP− and MTAP+ cells ([1]; SF-172 isogenic pair): absent altogether
difference in mean IC50 values between MTAP+ and MTAP− cell lines ([1]; parental MTAP+ vs MTAP− cell lines): did not observe significant differences
